Reference: patent US6017917A, “Guanidine derivatives” (Fujisawa Pharamceutical Co., Ltd., priority 1996, dated 2000)
Structures can show the parent of a compound that is named as a salt.

Target: T1, Na^+ /H^+ exchanger (Rattus norvegicus, UniProt P26431)
T1 construct: endogenous in cells; host or cells: thymocytes freshly isolated from the thymus of a male SD rat
Test: Inhibitory activity on Na^+ /H^+ exchange in cells (swelling of thymocytes in sodium propionate medium)
Format: cell-based, rat (SD strain)
Settings: apparent Ki from Lineweaver-Burk plot, sodium-propionate medium pH 6.8, rate of swelling, 3-5 concentrations
Method: [2] Inhibitory activity on Na^+ /H^+ exchange in cells
Procedure was carried out according to a similar manner to the method described in Enzymology 173 , 777 (1989).
One male SD strain rat weighing 250-300 g was sacrificed with the blow on the head. Then, the thymus was removed into ice-cold NaCl medium (140 mM sodium chloride, 1 mM potassium chloride, 1 mM calcium chloride, 1 mM magnesium chloride, 10 mM glucose and 20 mM N-2-hydroxyethylpiperazine-N'-2-ethanesulfonic acid (HEADS)--pH 7.3), cut in small fragments, and transferred to glass homogenizer. The cells were dissociated by gentle strokes, and the resulting suspension was filtrated through six layers of surgical gauze and the filtrate was centrifuged at 4° C. at 1000 g for 5 minutes. The pellet was resuspended in RPMI 1640 medium (pH 7.3) at room temperature to adjust final cell concentration (1×10^7 cells/ml).
This method detects the swelling that accompanies activation of Na^+ /H^+ exchanger in cells incubated with sodium propionate. Propionic acid rapidly penetrates through the membrane. […]
Cell sizing and counting were performed electrically with the Coulter Counter-Channelyzer (AT-II). […] Rate of Swelling (Δ volume/min.) was measured by using 3-5 concentrations of test compound. Then, apparent Ki value of test compound was calculated by using Line weaver-Burk plot.

T1 sequence (P26431 whole entry): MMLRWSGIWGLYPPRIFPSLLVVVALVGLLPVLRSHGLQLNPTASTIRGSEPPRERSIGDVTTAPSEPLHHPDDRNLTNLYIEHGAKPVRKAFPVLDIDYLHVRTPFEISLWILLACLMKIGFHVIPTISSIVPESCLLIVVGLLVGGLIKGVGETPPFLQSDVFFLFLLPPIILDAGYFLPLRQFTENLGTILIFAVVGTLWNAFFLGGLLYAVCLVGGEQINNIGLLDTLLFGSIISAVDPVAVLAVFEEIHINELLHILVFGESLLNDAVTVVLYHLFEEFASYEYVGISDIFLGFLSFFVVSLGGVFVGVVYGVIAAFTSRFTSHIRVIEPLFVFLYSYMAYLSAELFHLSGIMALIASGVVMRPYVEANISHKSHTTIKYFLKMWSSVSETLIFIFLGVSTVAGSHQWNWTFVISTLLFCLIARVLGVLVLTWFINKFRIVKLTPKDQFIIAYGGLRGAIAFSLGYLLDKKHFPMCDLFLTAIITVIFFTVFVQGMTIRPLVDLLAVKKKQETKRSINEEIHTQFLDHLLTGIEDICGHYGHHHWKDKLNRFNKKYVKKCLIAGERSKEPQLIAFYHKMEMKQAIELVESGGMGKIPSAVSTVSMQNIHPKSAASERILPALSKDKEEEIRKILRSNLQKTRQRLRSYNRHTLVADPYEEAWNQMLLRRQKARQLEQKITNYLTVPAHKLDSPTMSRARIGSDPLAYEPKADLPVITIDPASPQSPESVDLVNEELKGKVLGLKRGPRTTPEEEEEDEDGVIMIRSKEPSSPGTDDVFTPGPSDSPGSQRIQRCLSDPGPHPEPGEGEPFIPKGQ

- Ki: < 100 nM
SMILES: NC(N)=NC(=O)c1cc(C(=O)NCCN2CCOCC2)cc(-c2cc(Cl)ccc2Cl)c1 [(a), [5-(2,5-dichlorophenyl)-3-[(2-morpholinoethyl)-carbamoyl]benzoyl]guanidine.dihydrochloride]
